Experimental data taken from patent US5219884A, “Immunosuppressant” (Taito Co., Ltd., priority 1990, dated 1993).
Read-outs that look alike come from different tables or passages of the source.

Key:
MOLT4 = assay: cytotoxicity to tumor cell line MOLT4; format: cell-based, human
How it was run: (§1)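 Human tumour lines at 2×10^5 cells/ml in RPMI1640 with 20% FCS were mixed 1:1 with test solution and cultured 72 h at 37° C, 5% CO2. MTT colorimetry at 550 nm; percent suppression served as the cytotoxicity index.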

[1] = cytotoxicity to tumor cell line MOLT4; format: cell-based, human; details: human, molt4 cells, read-out: Suppression
How it was run: as §1

PC-14 = assay: in vitro; format: cell-based, human
U937 = assay: in vitro; format: cell-based, human
KB = assay: in vitro; format: cell-based, human
HL60 = assay: in vitro; format: cell-based, human
CCRF-CEM = assay: in vitro; format: cell-based, human
K562 = assay: in vitro; format: cell-based, human
in vitro = format: cell-based, human; details: human, read-out: Suppression
mouse L929 cells = assay: cytotoxicity to mouse L929 cells; format: cell-based; details: 550 nm
[2] = cytotoxicity to mouse L929 cells; format: cell-based; details: mouse, l929 cells, read-out: Suppression
[3] = test system: mouse allogenic mixed lymphocyte reaction (BALB/c responder, C57BL/6 stimulator spleen cells); assay: mouse allogenic mixed lymphocyte reaction (MLR), blastogenesis by 3H-thymidine uptake; format: cell-based; details: for inhibition at 0.001 µg/mL / inhibition at 0.01 µg/mL / inhibition at 0.1 µg/mL: Mus musculus, Lymphocyte, read-out: Suppression

SMILES: CCCCCCC(O)CCCCCCCCCC(O)C(O)C(N)(CO)C(=O)O (stereo not drawn) [Example 9]
- Absorbancy (MOLT4; 0.1 μg/ml): 0.111
- Absorbancy (MOLT4; 1.0 μg/ml): 0.132
- Absorbancy (MOLT4; 10.0 μg/ml): 0.142
- cytotoxicity at 72 h ([1]; 0.1 μg/ml): 23.4%
- cytotoxicity at 72 h ([1]; 1.0 μg/ml): 9%
- cytotoxicity at 72 h ([1]; 10.0 μg/ml): 2.1%
- Absorbancy (PC-14; 0.1 μg/ml): 0.404
- Absorbancy (PC-14; 1.0 μg/ml): 0.441
- Absorbancy (PC-14; 10.0 μg/ml): 0.374
- Absorbancy (U937; 0.1 μg/ml): 0.640
- Absorbancy (U937; 1.0 μg/ml): 0.592
- Absorbancy (U937; 10.0 μg/ml): 0.584
- Absorbancy (KB; 0.1 μg/ml): 0.778
- Absorbancy (KB; 1.0 μg/ml): 0.762
- Absorbancy (KB; 10.0 μg/ml): 0.696
- Absorbancy (HL60; 0.1 μg/ml): 0.450
- Absorbancy (HL60; 1.0 μg/ml): 0.435
- Absorbancy (HL60; 10.0 μg/ml): 0.413
- Absorbancy (CCRF-CEM; 0.1 μg/ml): 0.702
- Absorbancy (CCRF-CEM; 1.0 μg/ml): 0.696
- Absorbancy (CCRF-CEM; 10.0 μg/ml): 0.680
- Absorbancy (K562; 0.1 μg/ml): 0.378
- Absorbancy (K562; 1.0 μg/ml): 0.364
- Absorbancy (K562; 10.0 μg/ml): 0.317
- cytotoxicity at 72 h (in vitro; ccrf-cem cells, 0.1 μg/ml): 0%
- cytotoxicity at 72 h (in vitro; ccrf-cem cells, 1.0 μg/ml): 0%
- cytotoxicity at 72 h (in vitro; ccrf-cem cells, 10.0 μg/ml): 1.7%
- cytotoxicity at 72 h (in vitro; hl60 cells, 0.1 μg/ml): 13.8%
- cytotoxicity at 72 h (in vitro; hl60 cells, 1.0 μg/ml): 16.7%
- cytotoxicity at 72 h (in vitro; hl60 cells, 10.0 μg/ml): 20.9%
- cytotoxicity at 72 h (in vitro; k562 cells, 0.1 μg/ml): 1.8%
- cytotoxicity at 72 h (in vitro; k562 cells, 1.0 μg/ml): 5.5%
- cytotoxicity at 72 h (in vitro; k562 cells, 10.0 μg/ml): 17.7%
- cytotoxicity at 72 h (in vitro; kb cells, 0.1 μg/ml): 0%
- cytotoxicity at 72 h (in vitro; kb cells, 1.0 μg/ml): 0%
- cytotoxicity at 72 h (in vitro; kb cells, 10.0 μg/ml): 4.7%
- cytotoxicity at 72 h (in vitro; pc-14 cells, 0.1 μg/ml): 14.8%
- cytotoxicity at 72 h (in vitro; pc-14 cells, 1.0 μg/ml): 7%
- cytotoxicity at 72 h (in vitro; pc-14 cells, 10.0 μg/ml): 21.1%
- cytotoxicity at 72 h (in vitro; u937 cells, 0.1 μg/ml): 0%
- cytotoxicity at 72 h (in vitro; u937 cells, 1.0 μg/ml): 0%
- cytotoxicity at 72 h (in vitro; u937 cells, 10.0 μg/ml): 0%
- Absorbancy (mouse L929 cells; 1 μg/ml): 0.749
- Absorbancy (mouse L929 cells; 10 μg/ml): 0.747
- Absorbancy (mouse L929 cells; 100 μg/ml): 0.567
- cytotoxicity at 48 h ([2]; 1 μg/ml): 0%
- cytotoxicity at 48 h ([2]; 10 μg/ml): 0%
- cytotoxicity at 48 h ([2]; 100 μg/ml): 1%
- 3H-thymidine uptake ([3]; 0.001 μg/ml): 25682 cpm
- 3H-thymidine uptake ([3]; 0.01 μg/ml): 23668 cpm
- 3H-thymidine uptake ([3]; 0.1 μg/ml): 3167 cpm
- inhibition at 0.001 µg/mL ([3]; 0.001 μg/ml): 7.5%
- inhibition at 0.01 µg/mL ([3]; 0.01 μg/ml): 17.1%
- inhibition at 0.1 µg/mL ([3]; 0.1 μg/ml): 100%

SMILES: CCCCCCC(O)CCCCCCCCCC1OC(=O)C(N)(CO)C1O (stereo not drawn) [Example 10]
- Absorbancy (MOLT4; 0.1 μg/ml): 0.148
- Absorbancy (MOLT4; 1.0 μg/ml): 0.159
- Absorbancy (MOLT4; 10.0 μg/ml): 0.170
- cytotoxicity at 72 h ([1]; 0.1 μg/ml): 0%
- cytotoxicity at 72 h ([1]; 1.0 μg/ml): 0%
- cytotoxicity at 72 h ([1]; 10.0 μg/ml): 0%
- Absorbancy (PC-14; 0.1 μg/ml): 0.433
- Absorbancy (PC-14; 1.0 μg/ml): 0.411
- Absorbancy (PC-14; 10.0 μg/ml): 0.317
- Absorbancy (U937; 0.1 μg/ml): 0.545
- Absorbancy (U937; 1.0 μg/ml): 0.541
- Absorbancy (U937; 10.0 μg/ml): 0.517
- Absorbancy (KB; 0.1 μg/ml): 0.743
- Absorbancy (KB; 1.0 μg/ml): 0.735
- Absorbancy (KB; 10.0 μg/ml): 0.610
- Absorbancy (HL60; 0.1 μg/ml): 0.447
- Absorbancy (HL60; 1.0 μg/ml): 0.415
- Absorbancy (HL60; 10.0 μg/ml): 0.406
- Absorbancy (CCRF-CEM; 0.1 μg/ml): 0.672
- Absorbancy (CCRF-CEM; 1.0 μg/ml): 0.647
- Absorbancy (CCRF-CEM; 10.0 μg/ml): 0.645
- Absorbancy (K562; 0.1 μg/ml): 0.390
- Absorbancy (K562; 1.0 μg/ml): 0.343
- Absorbancy (K562; 10.0 μg/ml): 0.311
- cytotoxicity at 72 h (in vitro; ccrf-cem cells, 0.1 μg/ml): 2.9%
- cytotoxicity at 72 h (in vitro; ccrf-cem cells, 1.0 μg/ml): 6.5%
- cytotoxicity at 72 h (in vitro; ccrf-cem cells, 10.0 μg/ml): 6.8%
- cytotoxicity at 72 h (in vitro; hl60 cells, 0.1 μg/ml): 14.4%
- cytotoxicity at 72 h (in vitro; hl60 cells, 1.0 μg/ml): 20.5%
- cytotoxicity at 72 h (in vitro; hl60 cells, 10.0 μg/ml): 22.3%
- cytotoxicity at 72 h (in vitro; k562 cells, 0.1 μg/ml): 0%
- cytotoxicity at 72 h (in vitro; k562 cells, 1.0 μg/ml): 10.9%
- cytotoxicity at 72 h (in vitro; k562 cells, 10.0 μg/ml): 19.2%
- cytotoxicity at 72 h (in vitro; kb cells, 0.1 μg/ml): 0%
- cytotoxicity at 72 h (in vitro; kb cells, 1.0 μg/ml): 0%
- cytotoxicity at 72 h (in vitro; kb cells, 10.0 μg/ml): 16.4%
- cytotoxicity at 72 h (in vitro; pc-14 cells, 0.1 μg/ml): 8.6%
- cytotoxicity at 72 h (in vitro; pc-14 cells, 1.0 μg/ml): 13.3%
- cytotoxicity at 72 h (in vitro; pc-14 cells, 10.0 μg/ml): 33.1%
- cytotoxicity at 72 h (in vitro; u937 cells, 0.1 μg/ml): 6.5%
- cytotoxicity at 72 h (in vitro; u937 cells, 1.0 μg/ml): 7.2%
- cytotoxicity at 72 h (in vitro; u937 cells, 10.0 μg/ml): 11.3%
- Absorbancy (mouse L929 cells; 1 μg/ml): 0.722
- Absorbancy (mouse L929 cells; 10 μg/ml): 0.661
- Absorbancy (mouse L929 cells; 100 μg/ml): 0.023
- cytotoxicity at 48 h ([2]; 1 μg/ml): 0%
- cytotoxicity at 48 h ([2]; 10 μg/ml): 0%
- cytotoxicity at 48 h ([2]; 100 μg/ml): 96%
- 3H-thymidine uptake ([3]; 0.001 μg/ml): 19595 cpm
- 3H-thymidine uptake ([3]; 0.01 μg/ml): 19019 cpm
- 3H-thymidine uptake ([3]; 0.1 μg/ml): 2405 cpm
- inhibition at 0.001 µg/mL ([3]; 0.001 μg/ml): 36.4%
- inhibition at 0.01 µg/mL ([3]; 0.01 μg/ml): 39.1%
- inhibition at 0.1 µg/mL ([3]; 0.1 μg/ml): 100%

SMILES: CCCCCCC(=O)CCCCCC/C=C/CC1OC(=O)C(CO)(NC(C)=O)C1O (stereo not drawn) [Example 11]
- Absorbancy (MOLT4; 0.1 μg/ml): 0.182
- Absorbancy (MOLT4; 1.0 μg/ml): 0.150
- Absorbancy (MOLT4; 10.0 μg/ml): 0.128
- cytotoxicity at 72 h ([1]; 0.1 μg/ml): 0%
- cytotoxicity at 72 h ([1]; 1.0 μg/ml): 0%
- cytotoxicity at 72 h ([1]; 10.0 μg/ml): 11.7%
- Absorbancy (PC-14; 0.1 μg/ml): 0.443
- Absorbancy (PC-14; 1.0 μg/ml): 0.413
- Absorbancy (PC-14; 10.0 μg/ml): 0.284
- Absorbancy (U937; 0.1 μg/ml): 0.598
- Absorbancy (U937; 1.0 μg/ml): 0.583
- Absorbancy (U937; 10.0 μg/ml): 0.449
- Absorbancy (KB; 0.1 μg/ml): 0.679
- Absorbancy (KB; 1.0 μg/ml): 0.688
- Absorbancy (KB; 10.0 μg/ml): 0.510
- Absorbancy (HL60; 0.1 μg/ml): 0.475
- Absorbancy (HL60; 1.0 μg/ml): 0.456
- Absorbancy (HL60; 10.0 μg/ml): 0.381
- Absorbancy (CCRF-CEM; 0.1 μg/ml): 0.694
- Absorbancy (CCRF-CEM; 1.0 μg/ml): 0.663
- Absorbancy (CCRF-CEM; 10.0 μg/ml): 0.603
- Absorbancy (K562; 0.1 μg/ml): 0.317
- Absorbancy (K562; 1.0 μg/ml): 0.337
- Absorbancy (K562; 10.0 μg/ml): 0.257
- cytotoxicity at 72 h (in vitro; ccrf-cem cells, 0.1 μg/ml): 0%
- cytotoxicity at 72 h (in vitro; ccrf-cem cells, 1.0 μg/ml): 4.2%
- cytotoxicity at 72 h (in vitro; ccrf-cem cells, 10.0 μg/ml): 12.9%
- cytotoxicity at 72 h (in vitro; hl60 cells, 0.1 μg/ml): 9%
- cytotoxicity at 72 h (in vitro; hl60 cells, 1.0 μg/ml): 12.6%
- cytotoxicity at 72 h (in vitro; hl60 cells, 10.0 μg/ml): 27%
- cytotoxicity at 72 h (in vitro; k562 cells, 0.1 μg/ml): 17.7%
- cytotoxicity at 72 h (in vitro; k562 cells, 1.0 μg/ml): 12.5%
- cytotoxicity at 72 h (in vitro; k562 cells, 10.0 μg/ml): 34.5%
- cytotoxicity at 72 h (in vitro; kb cells, 0.1 μg/ml): 7%
- cytotoxicity at 72 h (in vitro; kb cells, 1.0 μg/ml): 5.8%
- cytotoxicity at 72 h (in vitro; kb cells, 10.0 μg/ml): 30.1%
- cytotoxicity at 72 h (in vitro; pc-14 cells, 0.1 μg/ml): 6.5%
- cytotoxicity at 72 h (in vitro; pc-14 cells, 1.0 μg/ml): 12.7%
- cytotoxicity at 72 h (in vitro; pc-14 cells, 10.0 μg/ml): 40%
- cytotoxicity at 72 h (in vitro; u937 cells, 0.1 μg/ml): 0%
- cytotoxicity at 72 h (in vitro; u937 cells, 1.0 μg/ml): 0%
- cytotoxicity at 72 h (in vitro; u937 cells, 10.0 μg/ml): 23%
- Absorbancy (mouse L929 cells; 1 μg/ml): 0.710
- Absorbancy (mouse L929 cells; 10 μg/ml): 0.669
- Absorbancy (mouse L929 cells; 100 μg/ml): 0.047
- cytotoxicity at 48 h ([2]; 1 μg/ml): 0%
- cytotoxicity at 48 h ([2]; 10 μg/ml): 0%
- cytotoxicity at 48 h ([2]; 100 μg/ml): 91.8%
- 3H-thymidine uptake ([3]; 0.001 μg/ml): 32597 cpm
- 3H-thymidine uptake ([3]; 0.01 μg/ml): 30777 cpm
- 3H-thymidine uptake ([3]; 0.1 μg/ml): 23430 cpm
- inhibition at 0.001 µg/mL ([3]; 0.001 μg/ml): 0%
- inhibition at 0.01 µg/mL ([3]; 0.01 μg/ml): 0%
- inhibition at 0.1 µg/mL ([3]; 0.1 μg/ml): 18.2%
